Values joined by “and” are separate entries in the source; they are usually repeats but may differ in a detail not shown here. Equal entries are not always repeated.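 Cells were grown in 96-well plates and exposed to each compound for 48 hours at five concentrations; endpoints were interpolated linearly between bracketing concentrations, or set to the highest concentration if not reached. At the GI50, growth is halved. Definition used: TGI = concentration required for complete inhibition of growth.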
Tests used:
Assay in all cases: NCI tumour cell line growth inhibition, 48 h
[1] = test system: COLO 205 colon
[2] = test system: HOP-62 NSCLC
[3] = test system: OVCAR-3 ovarian
[4] = test system: OVCAR-4 ovarian
[5] = test system: SF-295 CNS
[6] = test system: U251 CNS
[7] = test system: CAKI-1 renal
[8] = test system: CCRF-CEM leukemia
[9] = test system: RPMI-8226 leukemia
[10] = test system: T-47D breast

Cc1ccc(/C=C(\NC(=O)c2ccccc2)c2nc3ccccc3[nH]2)cc1
TGI [1]: > 100 µM
TGI [2]: > 100 µM
TGI [3]: > 100 µM
TGI [4]: > 100 µM
TGI [5]: > 100 µM
TGI [6]: > 100 µM

Cc1[nH]c2ccccc2c1CC/C(=N\Nc1ccccc1)c1ccccc1
TGI [7]: > 100 µM
TGI [8]: > 100 µM
TGI [2]: > 100 µM
TGI [3]: > 100 µM
TGI [4]: > 100 µM
TGI [9]: > 100 µM
TGI [5]: > 100 µM
TGI [6]: > 100 µM

CSc1ccc2c(cc1=O)[C@@H](NC(=O)c1ccc(Cl)cc1)CCc1cc(O)c(O)c(O)c1-2
TGI [7]: > 100 µM
TGI [8]: > 100 µM
TGI [1]: > 100 µM
TGI [2]: > 100 µM
TGI [3]: 56.5 µM
TGI [4]: 82 µM
TGI [9]: 91.5 µM
TGI [5]: > 100 µM
TGI [6]: > 100 µM

CCC1C(C(=O)Nc2ccccc2C)=C(C)NC(C)=C1c1ccccc1C (centres undefined)
TGI [7]: > 100 µM
TGI [8]: > 100 µM
TGI [1]: > 100 µM
TGI [2]: > 100 µM
TGI [3]: > 100 µM
TGI [4]: > 100 µM
TGI [9]: 61.5 µM
TGI [5]: > 100 µM
TGI [6]: > 100 µM

O=C(Cc1nc2ccccc2o1)C(=O)Nc1cccc(Cl)c1
TGI [7]: > 100 µM
TGI [8]: > 100 µM
TGI [1]: > 100 µM
TGI [2]: > 100 µM
TGI [3]: > 100 µM
TGI [4]: > 100 µM
TGI [5]: > 100 µM
TGI [6]: > 100 µM

CCN(CC)CC(C)C(=O)/C=C/c1ccc(C)cc1 (centres undefined)
TGI [7]: 2.49 µM
TGI [8]: 16.1 µM
TGI [1]: 3.02 µM
TGI [2]: 33.5 µM
TGI [3]: 9.93 µM
TGI [4]: 4.26 µM
TGI [9]: > 100 µM
TGI [5]: 28.6 µM
TGI [6]: 3.43 µM

COc1cc2oc(-c3ccccc3)cc(=O)c2c(O)c1C
TGI [7]: > 100 µM
TGI [8]: > 100 µM
TGI [1]: > 100 µM
TGI [2]: > 100 µM
TGI [3]: > 100 µM
TGI [4]: > 100 µM
TGI [9]: > 100 µM
TGI [5]: > 100 µM
TGI [6]: > 100 µM

O=C(/C=C/c1ccccc1O)c1ccc([N+](=O)[O-])cc1
TGI [7]: 39.1 µM
TGI [8]: 66.1 µM
TGI [1]: 27.4 µM
TGI [2]: 32.4 µM
TGI [3]: 25.5 µM
TGI [4]: 25.1 µM
TGI [5]: 56.5 µM
TGI [6]: 28.5 µM

CSc1nc2nn(Cc3ccccc3)cc2c(=O)[nH]1
TGI [7]: > 100 µM
TGI [8]: > 100 µM
TGI [1]: > 100 µM
TGI [2]: > 100 µM
TGI [3]: > 100 µM
TGI [4]: > 100 µM
TGI [9]: > 100 µM
TGI [5]: > 100 µM
TGI [6]: > 100 µM

CN(C)CCC(CCN(C)C)=NO
TGI [7]: > 100 µM
TGI [8]: > 100 µM
TGI [1]: > 100 µM
TGI [2]: > 100 µM
TGI [3]: > 100 µM
TGI [4]: > 100 µM
TGI [9]: > 100 µM
TGI [5]: > 100 µM
TGI [6]: > 100 µM

COc1ccc(CCN(CC(=O)N(CC(N)=O)C2CCC[C@@H]2OCc2ccccc2)C(=O)CN(C(=O)CN(CCc2ccc(Cl)cc2)C(=O)CN(C(=O)CN(C)Cc2ccccc2F)[C@H](C)C2CCCCC2)[C@H](C)C2CCCCC2)cc1OC (some centres undefined)
GI50 [8]: 1.66 µM
TGI [8]: 15.1 µM
GI50 [1]: 0.893 µM
TGI [1]: 2.4 µM
GI50 [2]: 3.02 µM
TGI [2]: > 50 µM
GI50 [3]: 1.82 µM
TGI [3]: > 50 µM
GI50 [4]: 1.95 µM
TGI [4]: > 50 µM
GI50 [9]: 1.19 µM
TGI [9]: 3.28 µM
GI50 [5]: 1.16 µM
TGI [5]: 3.49 µM
GI50 [10]: 1.43 µM
TGI [10]: > 50 µM
GI50 [6]: 1.98 µM
TGI [6]: 17.7 µM

CCCCCCn1c(SC)nc(COC(=O)NC)c1COC(=O)NC
TGI [7]: 29.1 µM
TGI [1]: 29.2 µM
TGI [2]: 37.1 µM
TGI [3]: 33.5 µM
TGI [4]: 21.4 µM
TGI [9]: 67.7 µM
TGI [5]: 35.1 µM
TGI [10]: 35 µM

O=C(OCCCl)C1OC(n2cc(F)c(=O)[nH]c2=O)CC1O (centres undefined)
TGI [8]: > 100 µM
TGI [1]: > 100 µM
TGI [2]: > 100 µM
TGI [3]: > 100 µM
TGI [4]: > 100 µM
TGI [9]: > 100 µM
TGI [5]: > 100 µM
TGI [6]: > 100 µM

CCn1c2ccccc2c(=O)c2c(OC)ccc(OC)c21
TGI [7]: > 100 µM
TGI [8]: > 100 µM
TGI [1]: > 100 µM
TGI [2]: > 100 µM
TGI [3]: > 100 µM
TGI [4]: > 100 µM
TGI [9]: > 100 µM
TGI [5]: > 100 µM
TGI [6]: > 100 µM

CC(=O)CC/C=C(\C)[C@H](O)[C@H](C)C(=O)O[C@H]1C[C@H](C)C=C2C=C[C@@]3(C)O[C@@H](O)CC(=O)[C@]3(C)[C@H]21
GI50 [8]: 0.514 µM
TGI [8]: 4.83 µM
GI50 [1]: 0.425 µM
TGI [1]: 2.03 µM
GI50 [2]: 0.492 µM
TGI [2]: 3.63 µM
GI50 [3]: 0.614 µM
TGI [3]: 3.52 µM
GI50 [4]: 1.78 µM
TGI [4]: 6.05 µM
GI50 [9]: 0.308 µM
TGI [9]: 2.25 µM
GI50 [5]: 0.746 µM
TGI [5]: 6.51 µM
GI50 [10]: 0.309 µM
TGI [10]: 2.54 µM
GI50 [6]: 0.384 µM
TGI [6]: 2.8 µM

C=CC(=O)NC(N)=NC#N
GI50 [7]: 171 µM
TGI [7]: 361 µM
GI50 [8]: 130 µM
TGI [8]: > 66.1 µM and 317 µM
TGI [1]: 280 µM
TGI [2]: 423 µM
TGI [3]: 310 µM
TGI [4]: 304 µM
GI50 [9]: 91.6 µM
TGI [9]: > 67.3 µM and 446 µM
TGI [5]: 843 µM
TGI [6]: 296 µM

O=C(N/C(=C\c1cccc([N+](=O)[O-])c1)c1nc2ccccc2[nH]1)c1ccccc1
TGI [7]: > 100 µM
TGI [8]: > 100 µM
TGI [1]: > 100 µM
TGI [2]: > 100 µM
TGI [3]: > 100 µM
TGI [4]: > 100 µM
TGI [9]: > 100 µM
TGI [6]: > 100 µM

COC(=O)c1ncc2c(=O)[nH]c3ccccc3c2c1C(=O)OC
TGI [7]: > 100 µM
TGI [8]: > 100 µM
TGI [2]: > 100 µM
TGI [3]: > 100 µM
TGI [4]: > 100 µM
TGI [9]: > 100 µM
TGI [5]: > 100 µM

Oc1ccc2ccccc2c1N=Nc1cc(Cl)ccc1Cl
TGI [7]: > 50 µM
TGI [8]: > 50 µM
TGI [1]: > 50 µM
TGI [2]: 20.8 µM
TGI [3]: > 50 µM
TGI [4]: 28.8 µM
TGI [9]: > 50 µM
TGI [5]: 28.6 µM
TGI [6]: 22 µM

CN(C)CCCSc1ccccc1NC1=C(Cl)C(=O)C(Nc2ccccc2SCCCN(C)C)=C(Cl)C1=O
GI50 [8]: 0.476 µM
TGI [8]: 4.15 µM
GI50 [1]: 2.08 µM
TGI [1]: 4.03 µM
GI50 [2]: 3.59 µM
TGI [2]: 10.6 µM
GI50 [3]: 1.53 µM
TGI [3]: 2.89 µM
GI50 [4]: 1.29 µM
TGI [4]: 2.56 µM
GI50 [9]: 2.35 µM
TGI [9]: 5.62 µM
GI50 [5]: 1.96 µM
TGI [5]: 3.82 µM
GI50 [10]: 1.45 µM
TGI [10]: 3.98 µM
GI50 [6]: 2.12 µM
TGI [6]: 3.69 µM

Source: PubChem BioAssay (NCI)
